According to ChEMBL document CHEMBL2321681, “Design, synthesis, and evaluation of imidazo[4,5-c]pyridin-4-one derivatives with dual activity at angiotensin II type 1 receptor and peroxisome proliferator-activated receptor-γ” (Bioorg Med Chem Lett, 2013):
≈ marks a conversion by molar mass, not a printed value.

Experiments:
Cytochrome P450 2D6 = Cytochrome P450 2D6 (Homo sapiens, UniProt P10635); experiment: Inhibition of CYP2D6 (unknown origin); format: ADME
[1] = Permeability of the compound by PAMPA; format: ADME; settings: read-out: permeability
[2] = Intrinsic clearance in human liver microsomes
[3] = biological target: T1, Peroxisome proliferator-activated receptor gamma (Homo sapiens, UniProt P37231); experiment: Partial agonist activity at human PPARgamma-LBD/Gal4 DNA binding domain by transactivation assay
T1 sequence (P37231 whole entry): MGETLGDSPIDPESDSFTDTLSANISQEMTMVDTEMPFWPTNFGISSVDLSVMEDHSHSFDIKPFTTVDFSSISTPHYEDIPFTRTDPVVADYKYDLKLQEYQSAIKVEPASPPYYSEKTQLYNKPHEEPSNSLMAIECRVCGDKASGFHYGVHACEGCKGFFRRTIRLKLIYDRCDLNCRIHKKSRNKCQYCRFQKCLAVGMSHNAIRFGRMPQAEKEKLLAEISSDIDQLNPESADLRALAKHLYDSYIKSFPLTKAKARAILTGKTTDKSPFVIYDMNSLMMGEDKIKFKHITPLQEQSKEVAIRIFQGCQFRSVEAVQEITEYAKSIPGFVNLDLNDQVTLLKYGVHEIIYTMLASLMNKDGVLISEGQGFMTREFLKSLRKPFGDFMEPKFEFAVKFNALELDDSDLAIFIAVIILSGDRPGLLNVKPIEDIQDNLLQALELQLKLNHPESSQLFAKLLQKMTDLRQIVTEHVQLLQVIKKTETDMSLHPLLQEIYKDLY

[4] = Octanol-buffer distribution co-efficient, log D of the compound by shake-flask method; format: physicochemical
[5] = biological target: T2, Type-1 angiotensin II receptor (Homo sapiens, UniProt P30556)
T2 sequence (P30556 whole entry): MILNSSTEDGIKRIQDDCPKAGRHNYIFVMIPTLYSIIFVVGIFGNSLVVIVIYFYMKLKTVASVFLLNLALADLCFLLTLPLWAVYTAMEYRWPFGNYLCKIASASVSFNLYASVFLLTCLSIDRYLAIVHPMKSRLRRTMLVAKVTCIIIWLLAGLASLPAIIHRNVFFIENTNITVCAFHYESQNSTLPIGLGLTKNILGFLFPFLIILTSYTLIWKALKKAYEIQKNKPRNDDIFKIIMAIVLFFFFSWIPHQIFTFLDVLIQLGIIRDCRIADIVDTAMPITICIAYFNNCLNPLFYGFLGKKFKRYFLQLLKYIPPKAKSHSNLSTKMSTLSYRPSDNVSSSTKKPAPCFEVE

[6] = Kinetic solubility of the compound in potassium phosphate buffer at pH 6.5; format: physicochemical; settings: read-out: Kinetic_solubility
Cytochrome P450 3A4 = Cytochrome P450 3A4 (Homo sapiens, UniProt P08684); experiment: Inhibition of CYP3A4 (unknown origin); format: ADME
Cytochrome P450 3A4, sequence (P08684 whole entry): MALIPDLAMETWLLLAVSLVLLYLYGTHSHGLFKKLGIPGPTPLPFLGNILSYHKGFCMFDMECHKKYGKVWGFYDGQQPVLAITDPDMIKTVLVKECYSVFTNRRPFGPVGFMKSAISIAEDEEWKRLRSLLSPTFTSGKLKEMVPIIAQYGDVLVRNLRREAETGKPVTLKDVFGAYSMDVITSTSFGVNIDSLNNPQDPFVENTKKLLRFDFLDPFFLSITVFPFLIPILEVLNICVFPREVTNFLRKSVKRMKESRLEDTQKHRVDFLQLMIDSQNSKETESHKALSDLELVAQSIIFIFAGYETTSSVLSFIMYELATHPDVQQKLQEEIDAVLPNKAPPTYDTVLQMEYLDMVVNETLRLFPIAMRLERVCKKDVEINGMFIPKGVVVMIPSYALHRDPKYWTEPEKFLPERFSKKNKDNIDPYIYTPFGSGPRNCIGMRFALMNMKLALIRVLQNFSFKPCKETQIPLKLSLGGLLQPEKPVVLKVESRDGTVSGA

[7] = biological target: T3, Peroxisome proliferator-activated receptor alpha (Homo sapiens, UniProt Q07869); experiment: Agonist activity at PPARalpha (unknown origin)
T3 sequence (Q07869 whole entry): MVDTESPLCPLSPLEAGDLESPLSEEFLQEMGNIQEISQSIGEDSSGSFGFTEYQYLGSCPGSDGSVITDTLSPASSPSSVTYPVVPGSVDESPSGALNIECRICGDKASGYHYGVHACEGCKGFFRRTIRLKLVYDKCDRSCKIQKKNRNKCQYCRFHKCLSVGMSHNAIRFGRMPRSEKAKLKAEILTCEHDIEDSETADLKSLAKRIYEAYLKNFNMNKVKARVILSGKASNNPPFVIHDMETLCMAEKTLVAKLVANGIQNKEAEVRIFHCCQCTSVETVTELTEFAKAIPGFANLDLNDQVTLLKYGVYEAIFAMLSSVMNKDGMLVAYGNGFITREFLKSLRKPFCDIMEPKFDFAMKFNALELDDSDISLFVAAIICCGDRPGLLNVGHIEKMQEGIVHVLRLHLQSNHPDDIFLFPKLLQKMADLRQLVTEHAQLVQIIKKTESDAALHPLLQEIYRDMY

[8] = biological target: T4, Peroxisome proliferator-activated receptor delta (Homo sapiens, UniProt Q03181); experiment: Agonist activity at PPARbeta (unknown origin)
T4 sequence (Q03181 whole entry): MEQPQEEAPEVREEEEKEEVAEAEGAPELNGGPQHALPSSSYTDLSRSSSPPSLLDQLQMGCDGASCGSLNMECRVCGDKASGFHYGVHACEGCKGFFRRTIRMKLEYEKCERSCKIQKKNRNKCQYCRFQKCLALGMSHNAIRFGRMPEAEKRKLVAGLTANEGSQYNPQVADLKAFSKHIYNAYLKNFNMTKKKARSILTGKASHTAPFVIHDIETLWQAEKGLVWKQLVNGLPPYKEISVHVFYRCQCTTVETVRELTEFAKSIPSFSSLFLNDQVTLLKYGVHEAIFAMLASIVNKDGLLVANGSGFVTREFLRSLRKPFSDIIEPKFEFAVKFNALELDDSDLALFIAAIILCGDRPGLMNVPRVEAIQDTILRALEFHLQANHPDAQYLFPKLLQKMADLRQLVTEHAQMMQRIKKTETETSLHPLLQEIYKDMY

Cytochrome P450 2D6, sequence (P10635 whole entry): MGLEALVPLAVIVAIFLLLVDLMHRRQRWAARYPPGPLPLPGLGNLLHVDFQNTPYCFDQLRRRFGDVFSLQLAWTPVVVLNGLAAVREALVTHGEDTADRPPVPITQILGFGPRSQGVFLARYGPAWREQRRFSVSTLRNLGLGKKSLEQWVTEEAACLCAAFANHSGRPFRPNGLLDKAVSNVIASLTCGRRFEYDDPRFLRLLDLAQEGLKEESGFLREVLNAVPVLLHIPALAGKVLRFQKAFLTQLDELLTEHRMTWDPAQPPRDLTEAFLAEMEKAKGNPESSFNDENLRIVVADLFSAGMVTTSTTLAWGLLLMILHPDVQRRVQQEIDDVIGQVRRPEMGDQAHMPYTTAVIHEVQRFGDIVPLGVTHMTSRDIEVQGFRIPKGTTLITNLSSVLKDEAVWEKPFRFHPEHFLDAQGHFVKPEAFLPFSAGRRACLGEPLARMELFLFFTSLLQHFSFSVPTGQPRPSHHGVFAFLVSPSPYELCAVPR

| Structure (SMILES) | EC50 [3] [nM] | IC50 [5] [nM] | other results |
| --- | --- | --- | --- |
| CCc1nc2ccn(Cc3ccccc3C#N)c(=O)c2n1[C@H]1CCc2cc(-c3ccccc3-c3nnn[nH]3)ccc21 | 685 | 13.5 | inhibition (INH) (Cytochrome P450 2D6): 11%; Papp [1]: 10.7 ×10⁻⁶ cm/s; microsomal CLint [2]: 14 µL/min/mg; logD [4]: 1.7; solubility kinetic [6]: 11.7 µM (≈ 6.3 µg/mL); inhibition (INH) (Cytochrome P450 3A4): 31% |
| CCc1nc2ccn(Cc3ccccc3)c(=O)c2n1[C@H]1CCc2cc(-c3ccccc3-c3nnn[nH]3)ccc21 | 292 | 12.7 | EC50 [7]: > 50000 nM; EC50 [8]: > 50000 nM |
| CCc1nc2ccn(CC(=O)O)c(=O)c2n1[C@H]1CCc2cc(-c3ccccc3-c3nnn[nH]3)ccc21 | > 100000 | 348 | – |
| CCc1nc2ccn(Cc3ccccc3C)c(=O)c2n1[C@H]1CCc2cc(-c3ccccc3-c3nnn[nH]3)ccc21 | 97 | 5.1 | inhibition (INH) (Cytochrome P450 2D6): 6%; Papp [1]: 3.6 ×10⁻⁶ cm/s; microsomal CLint [2]: 32.6 µL/min/mg; logD [4]: 2.6; solubility kinetic [6]: 3.5 µM (≈ 1.85 µg/mL); inhibition (INH) (Cytochrome P450 3A4): 14% |
| CCc1nc2ccn(CC3CCCCC3)c(=O)c2n1[C@H]1CCc2cc(-c3ccccc3-c3nnn[nH]3)ccc21 | 942 | 41 | – |
| CCc1nc2ccn(Cc3cccnc3)c(=O)c2n1[C@H]1CCc2cc(-c3ccccc3-c3nnn[nH]3)ccc21 | 3640 | 45.2 | – |
| CCc1nc2cc[nH]c(=O)c2n1[C@H]1CCc2cc(-c3ccccc3-c3nnn[nH]3)ccc21 | > 100000 | 593 | – |
| CCc1nc2ccn(CC(C)C)c(=O)c2n1[C@H]1CCc2cc(-c3ccccc3-c3nnn[nH]3)ccc21 | 1710 | 19.4 | – |
| CCc1nc2ccn(Cc3ccccc3C(F)(F)F)c(=O)c2n1[C@H]1CCc2cc(-c3ccccc3-c3nnn[nH]3)ccc21 | 187 | 94.1 | – |
| CCc1nc2c(C)cn(Cc3ccccc3C)c(=O)c2n1[C@H]1CCc2cc(-c3ccccc3-c3nnn[nH]3)ccc21 | 42 | 6.8 | inhibition (INH) (Cytochrome P450 2D6): 4.5%; Papp [1]: 7 ×10⁻⁶ cm/s; microsomal CLint [2]: 37.5 µL/min/mg; logD [4]: 2.9; inhibition (INH) (Cytochrome P450 3A4): 3.5% |
| CCc1nc2ccn(Cc3cccc(F)c3)c(=O)c2n1[C@H]1CCc2cc(-c3ccccc3-c3nnn[nH]3)ccc21 | 159 | 67.4 | – |
| CCc1nc2ccn(Cc3ccccc3OC(F)(F)F)c(=O)c2n1[C@H]1CCc2cc(-c3ccccc3-c3nnn[nH]3)ccc21 | 20 | 29.3 | – |
| CCc1nc2ccn(Cc3ccccn3)c(=O)c2n1[C@H]1CCc2cc(-c3ccccc3-c3nnn[nH]3)ccc21 | 3580 | 63.8 | – |
| CCc1nc2ccn(Cc3cccc(C)c3)c(=O)c2n1[C@H]1CCc2cc(-c3ccccc3-c3nnn[nH]3)ccc21 | 108 | 36.9 | – |
| CCc1nc2ccn(CC(=O)N(C)C)c(=O)c2n1[C@H]1CCc2cc(-c3ccccc3-c3nnn[nH]3)ccc21 | > 100000 | 24.4 | – |
| CCc1nc2ccn(Cc3cccc(C(F)(F)F)c3)c(=O)c2n1[C@H]1CCc2cc(-c3ccccc3-c3nnn[nH]3)ccc21 | 449 | 81.6 | – |
| CCc1nc2ccn(Cc3ccccc3F)c(=O)c2n1[C@H]1CCc2cc(-c3ccccc3-c3nnn[nH]3)ccc21 | 103 | 37.7 | – |
| CCc1nc2c(C)cn(Cc3ccccc3C#N)c(=O)c2n1[C@H]1CCc2cc(-c3ccccc3-c3nnn[nH]3)ccc21 | 295 | 7 | inhibition (INH) (Cytochrome P450 2D6): 0%; Papp [1]: 19 ×10⁻⁶ cm/s; microsomal CLint [2]: 20.7 µL/min/mg; logD [4]: 2.5; solubility kinetic [6]: 5.2 µM (≈ 2.87 µg/mL); inhibition (INH) (Cytochrome P450 3A4): 0% |
| CCc1nc2ccn(Cc3c(C)noc3C)c(=O)c2n1[C@H]1CCc2cc(-c3ccccc3-c3nnn[nH]3)ccc21 | 4470 | 63.4 | – |
| CCc1nc2ccn(CC(=O)OCc3ccccc3)c(=O)c2n1[C@H]1CCc2cc(-c3ccccc3-c3nnn[nH]3)ccc21 | 1250 | 19.8 | – |
| CCc1nc2ccn(Cc3ccncc3)c(=O)c2n1[C@H]1CCc2cc(-c3ccccc3-c3nnn[nH]3)ccc21 | > 25000 | 250 | – |
